Assay results reported in PMC4900628, “Critical Evaluation of P2X7 Receptor Antagonists in Selected Seizure Models” (PLoS ONE, 2016).

Test system: PTZ-induced generalized clonic seizures
Test: Pentylenetetrazol seizure threshold test (PTZ-T)
Type: in vivo
Settings: for Cases of death (within 30 min) / Latency to the first gen. Clonus / Latency to the first gen. clonus (% of control) / latency to the onset of the first clonic seizures at higher doses / Latency to the first gen. Clonus (% control): mice; for Cases of death (within 30 min): n=12; for Latency to the first gen. Clonus: mean ± SEM; for latency to the onset of the first clonic seizures at higher doses: compounds alone, PTZ 87 mg/kg s.c.
Protocol: Unrestrained mice, placed in separate full-view Plexiglas cages, were injected with the convulsant drug PTZ, a non-competitive GABAA receptor antagonist, at a dose of 87 mg/kg s.c. in the neck and the appearance of the first generalized clonus (repeated clonic seizures of the fore- and hindlimbs lasting ≥3 s with an accompanying loss of righting reflex) was recorded during individual observation for 30 min (see [69]). […] Group sizes of 12 mice were used in all experiments. Control groups, which received vehicle, were tested together with the compound-treated group on the same experimental day. The number of animals in the group with a generalized clonic seizure and the latency time to its onset were analysed for statistical significance. In the absence of seizures within 30 min, the latency was taken as 1800 s.
For the seizure tests (MES-T, PTZ-T, PTZ-kindling), BBG and TIIAS was dissolved in polyethylene glycol (PEG BioUltra, 400, Sigma-Aldrich), diluted to 20% with aqua (aqua ad iniectabilia, Braun, Melsungen, Germany). AFC was solubilized in ≥97% N,N-dimethylacetamide (DMA, Sigma-Aldrich), vortexed and diluted with 45% 2-hydroxypropyl-ß-cyclodextrin (ß-CD, Sigma-Aldrich) (final ratio of the vehicle 1:9). JNJ-47965567 was solubilized in two equivalents of 1N HCl, vortexed and sonicated (until the compound was mostly diluted) and then 30% of sulfobutylether-ß-cyclodextrin (SBE-ß-CD, Toronto Res. Chemicals, Toronto, Canada) was slowly added. The pH was adjusted with 1N NaOH (similar amount of NaOH as HCl), all with continuous stirring. PTZ was dissolved in 0.9% NaCl-solution, carbamazepine, ethosuximide and Ca-valproate were administered in a 2% (w/v) suspension of hydroxyethylcellulose. The drug solutions or suspensions were prepared immediately before use; all doses refer to the salts. Animals in the control group received equivalent volumes of the vehicle (in mice always 10 ml/kg, in rats 1 ml/kg [JNJ], 3 ml/kg [AFC] or 4 ml/kg [BBG, TIIAS], depending on the solubility of the different compounds). Doses and peak time effects were selected on the basis of effective doses from corresponding in vivo studies in the literature: BBG (e.g.), tanshinone IIA (e.g.) and from manufacturer’s experimental data: AFC, JNJ (see, [80]).
Data were analysed using SigmaPlot (vers. 12.0, Systat Software, Erkrath, Germany) and SPSS (IBM SPSS Statistics 20, Ehningen, Germany), respectively. Results are expressed as mean ± SEM. In the fluorometric Ca^2+ assays, concentration-response curves were fitted by using a 4-parameter logistic function (Hill slope, Emin, Emax, IC50). […] In the MES-T, the current intensity inducing tonic hindlimb extensions in 50% of the mice (CC50 values with confidence limits for 95% probability) and the statistical significance was calculated using Probit analysis (SPSS). In the case of multiple comparisons between different groups α-correction was performed so that only differences with a P value of < 0.01 were considered significant. In the PTZ-T, the number of animals in the group with clonic seizures and the latency time were analysed using Fisher's exact probability test and the Mann-Whitney rank sum test, respectively. For multiple comparisons of the latency time a one-way ANOVA with the Holm-Sidak post hoc test was used. The influence of AFC on the plasma and brain concentrations of the antiepileptic drugs was statistical compared using the same procedure. In the PTZ-kindling model, the mean seizure stage within a group was calculated in relation to the number of PTZ-injections. Statistical comparison between vehicle- and compound-treated groups in this model was performed with two-way repeated measures ANOVA, followed by the Holm-Sidak post hoc test. The mean number of PTZ-injections needed to produce the first generalized seizure (≥ stage 3 convulsions) in the vehicle- versus compound-treated groups was statistically compared using a Mann-Whitney rank sum test.

[1] = 50 mg/kg i.p. 45 min before PTZ 87 mg/kg s.c.
[2] = series JNJ-47965567 15 mg/kg and/or ethosuximide 100 mg/kg i.p. 30 min before PTZ 87 mg/kg s.c.
[3] = series JNJ-47965567 30 mg/kg and/or ethosuximide 100 mg/kg i.p. 30 min before PTZ 87 mg/kg s.c.
[4] = series AFC-5128 25 mg/kg and/or ethosuximide 100 mg/kg, all i.p. 30 min before PTZ 87 mg/kg s.c.
[5] = series AFC-5128 50 mg/kg and/or ethosuximide 100 mg/kg, all i.p. 30 min before PTZ 87 mg/kg s.c.
[6] = series JNJ-47965567 15 mg/kg and/or ethosuximide 100 mg/kg i.p. 30 min before PTZ, control 4.74 ± 0.64 min
[7] = series JNJ-47965567 15 mg/kg and/or ethosuximide 100 mg/kg, all i.p. 30 min before PTZ 87 mg/kg s.c.
[8] = series JNJ-47965567 30 mg/kg and/or ethosuximide 100 mg/kg i.p. 30 min before PTZ, control 6.14 ± 1.34 min
[9] = series JNJ-47965567 30 mg/kg and/or ethosuximide 100 mg/kg, all i.p. 30 min before PTZ 87 mg/kg s.c.
[10] = 15 mg/kg i.p. 30 min before PTZ 87 mg/kg s.c.
[11] = 30 mg/kg i.p. 30 min before PTZ 87 mg/kg s.c.
[12] = 30 mg/kg i.p. 45 min before PTZ 87 mg/kg s.c.

With `CCOc1ccc(Nc2ccc(/C(=C3C=C/C(=[N+](/CC)Cc4cccc(S(=O)(=O)[O-])c4)C=C/3C)c3ccc(N(CC)Cc4cccc(S(=O)(=O)O)c4)cc3C)cc2)cc1` [Brilliant Blue G] as the molecule, how does the “# of mice/ with seizure” value [1] read?
Its value is 12/10.

What about the “Cases of death (within 30 min)” value [1] of the same molecule?
The value was 2.

And the “Latency to the first gen. Clonus” value (50 mg/kg i.p. 45 min before PTZ 87 mg/kg s.c., P < 0.05)?
The value was 13.91 ± 2.38 min.

And the “Latency to the first gen. clonus (% of control)” value (shortened to “Latency … (% of control)”) (50 mg/kg i.p. 45 min before PTZ 87 mg/kg s.c., vehicle 6.77 ± 2.23 min)?
Its value is 205.5 ± 35.2%.

And the “latency to the onset of the first clonic seizures at higher doses” value (“latency to the onset” below)?
The value was “tended to increase the latency”.

What does the source list for `CCC1(C)CC(=O)NC1=O` (stereo not shown) [Ethosuximide, ethosuximide]?
Cases of death (within 30 min) (series AFC-5128 25 mg/kg and/or ethosuximide 100 mg/kg i.p. 30 min before PTZ 87 mg/kg s.c.): 1; Cases of death (within 30 min) (series AFC-5128 50 mg/kg and/or ethosuximide 100 mg/kg i.p. 30 min before PTZ 87 mg/kg s.c.): 1; Cases of death (within 30 min) [2]: 0; Cases of death (within 30 min) [3]: 1; Latency to the first gen. Clonus (% control) (series AFC-5128 25 mg/kg and/or ethosuximide 100 mg/kg i.p. 30 min before PTZ, control 4.53 ± 0.56 min): 312.6 ± 65.8%; Latency to the first gen. Clonus [4]: 14.16 ± 2.98 min; Latency to the first gen. Clonus (% control) (series AFC-5128 50 mg/kg and/or ethosuximide 100 mg/kg i.p. 30 min before PTZ, control 10.83 ± 2.67 min): 200.6 ± 27.0%; Latency to the first gen. Clonus [5]: 21.72 ± 3.03 min; Latency to the first gen. Clonus (% control) [6]: 244.3 ± 75.3%; Latency to the first gen. Clonus [7]: 11.58 ± 3.57 min; Latency to the first gen. Clonus (% control) [8]: 209.0 ± 51.1%; Latency to the first gen. Clonus [9]: 12.83 ± 3.14 min; # of mice/ with seizures [4]: 12/8^+; # of mice/ with seizures [5]: 12/7^+; # of mice/ with seizures [7]: 12/8^+; # of mice/ with seizures [9]: 12/8^+

How did the “# of mice/ with seizure” value [10] turn out when `O=C(NCC1(N2CCN(c3ccccc3)CC2)CCOCC1)c1cccnc1Sc1ccccc1` [JNJ-47965567, N-[[4-(4-phenyl-piperazin-1-yl)tetrahydro-2H-pyran-4-yl]-methyl]-2-(phenyl-thio) nicotinamide] was run?
The value was 12/12.

And the “# of mice/ with seizure” value [11]?
The value was 12/10.

What about the “Cases of death (within 30 min)” value [10] of the same molecule?
Its value is 2.

And the “Cases of death (within 30 min)” value [11]?
Its value is 1.

What about the “Cases of death (within 30 min)” value [2] of the same molecule?
Its value is 3.

And the “Cases of death (within 30 min)” value [3]?
The value was 1.

What about the “Latency to the first gen. Clonus” value [10] of the same molecule?
The value was 7.31 ± 2.19 min.

And the “Latency … (% of control)” value (15 mg/kg i.p. 30 min before PTZ 87 mg/kg s.c., vehicle 6.94 ± 1.31 min)?
Its value is 105.3 ± 31.6%.

And the “Latency to the first gen. Clonus” value [11]?
The value was 13.66 ± 2.94 min.

And the “Latency … (% of control)” value (30 mg/kg i.p. 30 min before PTZ 87 mg/kg s.c., vehicle 7.13 ± 1.49 min)?
The value was 191.6 ± 41.2%.

What about the “latency to the onset” value of the same molecule?
Its value is “tended to increase the latency”.

What about the “Latency to the first gen. Clonus (% control)” value [6] of the same molecule?
The value was 109.4 ± 25.1%.

What about the “Latency to the first gen. Clonus” value [7] of the same molecule?
Its value is 5.19 ± 1.19 min.

What about the “Latency to the first gen. Clonus (% control)” value [8] of the same molecule?
Its value is 153.4 ± 47.1%.

And the “Latency to the first gen. Clonus” value [9]?
The value was 9.42 ± 2.89 min.

What about the “# of mice/ with seizures” value [7] of the same molecule?
The value was 12/12.

What about the “# of mice/ with seizures” value [9] of the same molecule?
Its value is 12/10.

`Cc1c(S(=O)(=O)[O-])oc2c1C(=O)C(=O)c1c-2ccc2c1CCCC2(C)C.[Na+]` [Tanshinone TIIAS, tanshinone IIS sulfonic sodium] was tested. Which “# of mice/ with seizure” value [12] did it give?
Its value is 12/11.

What about the “Cases of death (within 30 min)” value [12] of the same molecule?
The value was 0.

And the “Latency to the first gen. Clonus” value [12]?
The value was 10.08 ± 2.64 min.

And the “Latency … (% of control)” value (30 mg/kg i.p. 45 min before PTZ 87 mg/kg s.c., vehicle 5.00 ± 1.04 min)?
Its value is 201.6 ± 52.8%.

What about the “latency to the onset” value of the same molecule?
Its value is “tended to increase the latency”.
